Source: patent US5834493A, “Indole derivatives as 5-HT1A and/or 5-HT2 ligands” (priority 1993, dated 1998)

Experiments:
5-HT1A receptors = target: T1, 5-HT1A receptors (Rattus norvegicus, UniProt P19327); test: 5-HT1A receptor binding ([3H]-8-OH-DPAT displacement, rat hippocampus homogenate); parameters: species or system rat (male Sprague Dawley); conditions: [3H]-8-OH-DPAT 1.0-1.5 nM, 30° C., 15 min, pH 7.4, read-out: Affinity for 5-HT1A receptors, Ki
T1 construct: The Hippocampi of these animals were homogeneized in 10 volumes of ice cold TRIS buffer; from tissue; host or cells: rat hippocampus (male Sprague Dawley), homogenate
T1 sequence (P19327 1-422): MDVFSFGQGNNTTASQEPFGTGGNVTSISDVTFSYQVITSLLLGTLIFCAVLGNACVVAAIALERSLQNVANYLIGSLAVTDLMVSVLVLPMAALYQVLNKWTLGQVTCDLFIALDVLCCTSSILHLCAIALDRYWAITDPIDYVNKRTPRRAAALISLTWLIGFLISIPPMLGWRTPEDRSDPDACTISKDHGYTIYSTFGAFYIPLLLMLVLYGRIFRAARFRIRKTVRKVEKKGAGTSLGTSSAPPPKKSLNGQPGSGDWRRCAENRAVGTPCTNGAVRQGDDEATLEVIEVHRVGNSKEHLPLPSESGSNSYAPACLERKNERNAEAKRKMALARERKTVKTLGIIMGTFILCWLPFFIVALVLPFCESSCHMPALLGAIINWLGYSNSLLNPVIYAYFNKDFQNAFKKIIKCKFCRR
Experimental: (§1) Receptor binding studies on 5-HT1A and 5-HT2 receptors were carried out to determine the affinity of the test compounds.
Rats (male Sprague Dawley, 200-250 g) were used. The Hippocampi of these animals were homogeneized in 10 volumes of ice cold TRIS buffer (pH 7.4). The homogenate was diluted 1:400 (w:v) in the same buffer to have a final protein concentration of about 200 μg/mL, filtered and incubated at 37° C. for 10 min, before use.
Displacement experiments were performed by incubating the homogenate (980 μL) in the presence of [^3 H]-8OH-DPAT (1.0-1.5 nM) (10 μL) and of different concentrations of the test compounds dissolved in the test buffer (10 μL), at 30° C. for 15 min (final volume: 1 mL).
Non specific binding was determined in the presence of 100 μM 5-HT (10 μL). The separation of [3H]-8-OH-DPAT, free from that bound to the receptor, was carried out by the filtration technique (GF/B filters, Whatman). The radioactivity present was counted by liquid scintillation spectrometry.
(§2) The affinity values (Ki) for the compounds were obtained by a non linear least squares regression analysis on the basis of a one binding site model. The values were corrected on the basis of the radioligand occupancy on the receptors according to the equation: Ki=IC50 /(1+[C]/KD),where [C] and KD represent the concentration and the dissociation constant, respectively, of the radioligand used ([^3 H]-8-OH-DPAT).

5-HT2 receptors = target: T2, 5-HT2 receptors (Rattus norvegicus, UniProt P14842); test: 5-HT2 receptor binding ([3H]-Ketanserine displacement, rat cerebral cortex); parameters: species or system rat (male Sprague Dawley); conditions: [3H]-Ketanserine 0.5-1.0 nM, 37° C., 10 min, pH 7.4, read-out: Affinity for 5-HT2 receptors, Ki
T2 construct: Cerebral cortices were homogenized in 10 volumes of ice cold 0.32M sucrose; from tissue; host or cells: rat cerebral cortex (male Sprague Dawley), membrane preparation
T2 sequence (P14842 whole entry): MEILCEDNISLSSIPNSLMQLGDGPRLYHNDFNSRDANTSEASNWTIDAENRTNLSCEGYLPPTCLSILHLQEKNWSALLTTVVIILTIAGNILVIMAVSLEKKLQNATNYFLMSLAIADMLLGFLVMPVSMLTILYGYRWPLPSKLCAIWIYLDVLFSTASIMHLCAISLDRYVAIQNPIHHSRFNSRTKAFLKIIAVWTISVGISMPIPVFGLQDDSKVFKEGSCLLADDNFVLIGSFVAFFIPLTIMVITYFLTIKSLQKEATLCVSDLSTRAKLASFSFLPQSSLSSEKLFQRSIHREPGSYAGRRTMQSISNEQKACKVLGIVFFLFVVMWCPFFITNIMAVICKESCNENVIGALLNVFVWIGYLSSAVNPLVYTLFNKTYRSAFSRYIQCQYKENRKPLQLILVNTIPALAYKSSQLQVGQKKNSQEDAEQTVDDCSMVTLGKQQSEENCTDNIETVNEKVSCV
Experimental: as §1
Rats (male Sprague Dawley, 200-250 g) were used. Cerebral cortices were homogenized in 10 volumes of ice cold 0.32M sucrose. After the centrifugation of the homogenate (1,000×g for 10 min) the supernatant was then recentrifuged at 48,000×g for 15 min. The resulting pellet was resuspended in 10 volumes of 50 mM TRIS buffer (pH 7.4), incubated at 37° C. for 10 min and recentrifuged at 48,000×g for 15 min. The residue was then resuspended in 10 volumes of 50 mM TRIS buffer (pH 7.4).
The tissue was diluted 1:100 (w:v) in 50 mM TRIS buffer (pH 7.4) to have a final protein concentration of about 200 μg/mL.
Displacement experiments were performed by incubating the homogenate (980 μL) in the presence of [^3 H]-Ketanserine (0.5-1.0 nM) (10 μL) and of different concentrations of the test compounds dissolved in the assay buffer (10 μL), at 37° C. for 10 min (final volume: 1 mL).
Non specific binding was determined in the presence of 100 μM Methysergide (10 μL). The separation of [^3 ]-Ketanserine free from that bound to the receptor was carried by the filtration technique (GF/B filters, Whatman). The radioactivity present was counted by liquid scintillation spectrometry.
as §2, with “by” for “by a”, “model. These” for “model. The”, “Ki=IC50 /(1+[C]/KD), where” for “Ki=IC50 /(1+[C]/KD),where”, “([^3 H]-Ketanserine).” for “([^3 H]-8-OH-DPAT).”

SMILES | Ki (5-HT1A receptors) [nM] | Ki (5-HT2 receptors) [nM]
COc1ccc2[nH]cc(CC3=CCCN(C)C3)c2c1 [Compound 1, 5-methoxy-3-(N-methyl-1,2,5,6-tetrahydro-pyridin-3-yl-methyl)-1H-indole] | 35 | 
COc1ccc2[nH]cc(CC3=CCCN(CCOc4ccc(F)cc4)C3)c2c1 [Compound 2, 5-methoxy-3-[N-(4'-fluoro-phenoxy-ethyl)-1,2,5,6-tetrahydro-pyridin-3-yl-methyl]-1H-indole] | 10 | 50
COc1ccc2[nH]cc(CC3=CCCN(CCCC(=O)c4ccc(F)cc4)C3)c2c1 [Compound 9, 5-methoxy-3-[N-(4-(4-fluoro-phenyl)-4-oxo-butyl)-1,2,5,6-tetrahydro-pyridin-3-ylmethyl]-1H-indole] | 30 | 15
COc1ccc2[nH]cc(CC3=CCCN(CCC(=O)c4ccc(F)cc4)C3)c2c1 [Compound 11, 5-methoxy-3-[N-(3-(4-fluoro-phenyl)-3-oxo-propyl)-1,2,5,6-tetrahydro-pyridin-3-ylmethyl]-1H-indole] | 30 | 20
COc1ccc2[nH]cc(CC3=CCCN(CCc4ccc(N)cc4)C3)c2c1 [Compound 13, 5-methoxy-3-[N-(2-(4-amino-phenyl)-ethyl)-1,2,5,6-tetrahydro-pyridin-3-ylmethyl]-1H-indole] | 100 | 50
COc1ccc2[nH]cc(CC3=CCCN(CCCCc4ccc(F)cc4)C3)c2c1 [Compound 14, 5-methoxy-3-[N-(4-(4-fluoro-phenyl)-butyl)-1,2,5,6-tetrahydro-pyridin-3-ylmethyl]-1H-indole] | 80 | 100
COc1ccc2[nH]cc(CC3=CCCN(CCCc4ccc(F)cc4)C3)c2c1 [Compound 15, 5-methoxy-3-[N-(3-(4-fluoro-phenyl)-propyl)-1,2,5,6-tetrahydro-pyridin-3-ylmethyl]-1H-indole] | 10 | 10
COc1ccc2[nH]cc(CC3=CCCN(CCNC(=O)c4ccc(F)cc4)C3)c2c1 [Compound 16] | 1 | 
COc1ccc2[nH]cc(CC3=CCCN(CCNC(=O)c4cccs4)C3)c2c1 [Compound 17, 5-methoxy-3-[N-(2-(2-thiophene-carboxamide)-ethyl)-1,2,5,6-tetrahydro-pyridin-3-ylmethyl]-1H-indole] | 1 | 
COc1ccc2[nH]cc(CC3=CCCN(CCCC(=O)c4cccs4)C3)c2c1 [Compound 32, 5-methoxy-3-[N-(4-(2-thienyl)-4-oxo-butyl)-1,2,5,6-tetrahydro-pyridin-3-ylmethyl]-1H-indole] | 30 | 10
